# Test results from ChEMBL document CHEMBL3632570, “Structure-Guided Design of Novel l-Cysteine Derivatives as Potent KSP Inhibitors” (ACS Med Chem Lett, 2015).
# Active and inactive are the calls of the source. The rule behind the calls is not given here.
# Columns and labels:
# [1] = molecular target: T1, Kinesin-like protein KIF15 (Homo sapiens) (UniProt Q9NS87); assay: Inhibition of microtubule-stimulated KIF15 motor domain (1 to 372) (unknown origin) ATPase activity at 6.3 uM
# T1 sequence (whole entry): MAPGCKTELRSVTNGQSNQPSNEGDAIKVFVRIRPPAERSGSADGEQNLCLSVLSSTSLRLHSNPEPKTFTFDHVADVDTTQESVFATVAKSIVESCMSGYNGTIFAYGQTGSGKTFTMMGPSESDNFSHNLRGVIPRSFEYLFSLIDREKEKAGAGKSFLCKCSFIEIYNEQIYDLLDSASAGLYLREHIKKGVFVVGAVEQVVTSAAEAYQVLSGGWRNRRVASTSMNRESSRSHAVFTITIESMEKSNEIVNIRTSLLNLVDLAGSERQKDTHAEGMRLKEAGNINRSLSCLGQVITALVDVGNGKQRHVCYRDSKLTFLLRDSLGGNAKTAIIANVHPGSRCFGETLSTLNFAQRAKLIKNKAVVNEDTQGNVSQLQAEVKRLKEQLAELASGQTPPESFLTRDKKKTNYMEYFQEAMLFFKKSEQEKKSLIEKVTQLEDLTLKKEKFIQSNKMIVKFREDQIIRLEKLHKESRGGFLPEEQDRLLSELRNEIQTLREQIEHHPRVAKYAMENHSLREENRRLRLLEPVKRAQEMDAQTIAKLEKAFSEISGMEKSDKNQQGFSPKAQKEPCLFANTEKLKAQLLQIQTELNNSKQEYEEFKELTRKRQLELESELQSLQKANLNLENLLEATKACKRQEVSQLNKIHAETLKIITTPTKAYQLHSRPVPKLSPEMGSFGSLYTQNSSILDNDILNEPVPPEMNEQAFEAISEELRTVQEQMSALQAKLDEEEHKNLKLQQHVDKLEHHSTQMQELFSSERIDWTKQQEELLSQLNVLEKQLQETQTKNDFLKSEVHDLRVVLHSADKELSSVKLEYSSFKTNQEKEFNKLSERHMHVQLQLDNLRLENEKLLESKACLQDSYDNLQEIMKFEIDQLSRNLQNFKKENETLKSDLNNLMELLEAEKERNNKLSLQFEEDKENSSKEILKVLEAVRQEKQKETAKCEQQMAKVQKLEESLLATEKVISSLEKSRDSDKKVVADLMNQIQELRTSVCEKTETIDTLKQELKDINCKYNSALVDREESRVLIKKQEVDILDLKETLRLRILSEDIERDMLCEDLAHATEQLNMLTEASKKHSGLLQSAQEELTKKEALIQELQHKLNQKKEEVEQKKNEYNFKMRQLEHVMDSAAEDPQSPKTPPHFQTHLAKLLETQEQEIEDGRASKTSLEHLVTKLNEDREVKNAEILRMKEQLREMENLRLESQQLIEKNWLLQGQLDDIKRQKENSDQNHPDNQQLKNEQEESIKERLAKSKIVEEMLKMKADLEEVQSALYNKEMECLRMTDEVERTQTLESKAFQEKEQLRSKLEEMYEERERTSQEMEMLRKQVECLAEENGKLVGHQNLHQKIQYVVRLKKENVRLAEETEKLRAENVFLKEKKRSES
# HCT-116 = assay: Antitumor activity against human HCT116 cells xenografted in athymic nude BALB/cAJcL mouse assessed as inhibition of tumor growth at 25 mg/kg, iv administered on days 1,3,5,8,10 and 12 measured on day 15; assay type: functional
# [2] = molecular target: T2, Kinesin-like protein KIFC3 (Homo sapiens) (UniProt Q9BVG8); assay: Inhibition of microtubule-stimulated KIFC3 motor domain (303 to 638) (unknown origin) ATPase activity at 6.3 uM
# T2 sequence (whole entry): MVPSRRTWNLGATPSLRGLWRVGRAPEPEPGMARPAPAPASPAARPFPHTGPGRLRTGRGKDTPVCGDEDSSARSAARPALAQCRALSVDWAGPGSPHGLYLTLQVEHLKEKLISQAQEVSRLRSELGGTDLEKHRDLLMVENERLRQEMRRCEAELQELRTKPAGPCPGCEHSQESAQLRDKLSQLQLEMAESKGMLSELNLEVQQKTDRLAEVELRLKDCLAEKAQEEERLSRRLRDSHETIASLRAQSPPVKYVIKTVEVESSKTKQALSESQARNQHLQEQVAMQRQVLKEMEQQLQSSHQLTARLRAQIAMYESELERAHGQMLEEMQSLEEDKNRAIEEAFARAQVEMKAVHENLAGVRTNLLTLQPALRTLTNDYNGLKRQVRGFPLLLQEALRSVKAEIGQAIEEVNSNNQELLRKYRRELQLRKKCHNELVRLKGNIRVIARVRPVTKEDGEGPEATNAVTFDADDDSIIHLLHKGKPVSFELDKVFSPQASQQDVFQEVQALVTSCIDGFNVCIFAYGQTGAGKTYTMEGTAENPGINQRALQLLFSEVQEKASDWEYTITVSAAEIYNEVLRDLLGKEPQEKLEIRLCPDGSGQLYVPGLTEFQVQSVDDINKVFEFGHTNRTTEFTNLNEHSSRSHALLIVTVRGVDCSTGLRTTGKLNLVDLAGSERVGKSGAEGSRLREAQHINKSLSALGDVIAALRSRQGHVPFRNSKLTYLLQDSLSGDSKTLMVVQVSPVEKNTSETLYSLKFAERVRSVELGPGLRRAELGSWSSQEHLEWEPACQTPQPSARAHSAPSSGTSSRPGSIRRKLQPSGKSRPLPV
Compound,inhibition [1],T/C (HCT-116),inhibition [2]
COc1ccc(C2(SC[C@H](N)C(=O)O)c3ccccc3CCc3ccccc32)cc1,inactive,26%,inactive
N[C@@H](CSC1(c2ccc(C(F)(F)F)cc2)c2ccccc2CCc2ccccc21)C(=O)O,inactive,21%,inactive
